In US7169592B2, “Producing optically active amino compounds” (Kaneka Corporation, priority 1997, dated 2007):
Marks after values point to notes of the source that are not given here.

Assays:
[1] = tested on: purified enzyme protein (transaminase); experiment: Reactivity of purified transaminase to carbonyl compounds with (R)-1-phenylethylamine as amino group donor; format: biochemical, Arthrobacter species KNK168; settings: for Relative Activity: 25 mM carbonyl compound, 25 mM (R)-1-phenylethylamine, pH 8.5, 30° C., pyruvic acid = 100; for Reactivity as carbonyl compound (in words): (R)-1-phenylethylamine as amino group donor
Experimental: Using the purified enzyme protein obtained in Example 9, reactivities to various carbonyl compounds using (R)-1-phenylethylamine as an amino group donor were evaluated. A 50 μl solution of the purified enzyme protein was added to 200 μl substrate solution [0.1 M Tris-HCl buffer (pH 8.5), 25 mM (R)-1-phenylethylamine, 0.1 mM pyridoxal phosphate, and 25 mM various carbonyl compounds], and the mixture was reacted at 30° C. for 1 to 3 hours in tube. The reaction tube was transferred into boiling water to stop the reaction, and thereafter, the reaction mixture was diluted five-folds with methanol. This diluted solution was analyzed by high-performance liquid chromatography using a fine pack C18-5 column and using methanol-water (20:80) as an eluent to quantitate acetophenone formed by the reaction.

[2] = tested on: Transaminase of Present Invention (purified enzyme); experiment: Reactivity of purified transaminase to amino compounds (amino group donors) with pyruvic acid as acceptor; format: biochemical, Arthrobacter sp. KNK168; settings: for Relative Activity: amino compound 40 mM in substrate solution, pyruvic acid acceptor, pH 8.3, 30° C., 1 hour, (R)-1-phenylethylamine = 100; for Reactivity as amino compound (in words): pyruvic acid as amino acceptor
Text: The differences with the ω-amino acid transaminase derived from Pseudomonas sp. F-1 (Agric. Biol. Chem., 42, 2363–2367 (1978), Agric. Biol. Chem., 43, 1043–1048 (1979), J. Biol. Chem., 258, 2260–2265 (1983)) which have been well studied among the ω-amino acid transaminases, and with the benzylamine transaminase of Okada et al. (Japanese Patent Laid-Open No. Hei 6-178685) are summarized and shown in Table 2. In a case of the transaminase reaction in the present invention, the data of the purified enzyme are used, and in cases of those by other two enzymes, the data of the purified enzymes which are disclosed in each of the literature publication and laid-open patent publication are used. Pyruvic acid is used as an amino group acceptor in all cases.
Using the purified enzyme protein obtained in Example 9, reactivities to various amino compounds when using pyruvic acid as an amino acceptor were evaluated. A 150 μl solution of the purified enzyme protein solution diluted ten-folds was added to a 150 μl substrate solution [0.1 M potassium phosphate buffer (pH 8.3), 40 mM pyruvic acid, 0.1 mM pyridoxal phosphate, and 40 mM various amino compounds]. The components were reacted at 30° C. for 1 hour. The reaction tube was transferred into boiling water to stop the reaction, and thereafter, a part of the reaction mixture was diluted five-folds. Ten μl 0.1 M boric acid buffer (pH 8.0) and a 20 μl ethanol solution of 80 mM 4-fluoro-7-nitro-2,1,3-benzoxadiazole (NBD-F) were added to the 10 μl above-mentioned diluted reaction mixture. The resulting mixture was reacted at 60° C. for 1 minute, and thereafter, the resulting mixture was ice-cooled, and 460 μl 5 mM HCl was added thereto. This reaction mixture was analyzed by high-performance liquid chromatography using a fine pack C18-5 column (manufactured by Nippon Bunko) I and using 0.1 M potassium phosphate buffer (pH 6.5) and CH3CN (90:10) as an eluent to detect formation of NBD-Alanine with an excitation wavelength of 470 nm and a detection wave of […]. The results thereof are shown in Table 8 in terms of relative activity in the case of using […] as a substrate.

[3] = tested on: Arthrobacter species KNK168 strain; experiment: Amino group donors in whole-cell transamination of 1-(3,4-dimethoxyphenyl)-2-propanone; format: cell-based; settings: 1% amino group donor, 1% 1-(3,4-dimethoxyphenyl)-2-propanone, 0.1% Triton X-100, pH 8.5, 35° C., 20 hours
Experimental: The cultured cells were harvested by centrifugation, and the harvested cells were suspended in a reaction mixture (pH 8.5) containing 1% 1-(3,4-dimethoxyphenyl)-2-propanone, 0.1% Triton X-100, and 1% an amino group donor shown in Table 5. The mixture was reacted at 35° C. for 20 hours.

[4] = tested on: transaminase (intracellular enzyme); experiment: Activity of the transaminase (intracellular enzyme) on typical substrates of ω-aminotransferases; format: biochemical, Arthrobacter sp. KNK168
[5] = tested on: Arthrobacter species KNK168 strain; experiment: Surfactant and fatty acid additives in whole-cell transamination; format: cell-based; settings: for (R)-DMA Formed: 30° C., pH 8.5, 20 hours; for Effect of additive on yield of reaction product (in words): whole cells
Experimental: The cells obtained by culturing the Arthrobacter species KNK168 strain in the R medium were suspended in a reaction mixture containing 2% 1-(3,4-dimethoxyphenyl)-2-propanone and 4% (RS)-1-phenylethylamine. The surfactants and fatty acids shown in Table 6 were added thereto, and the mixture was reacted at 30° C. at a pH of 8.5 for 20 hours.

[6] = amino group acceptor pyruvic acid, (R)-1-phenylethylamine = 100 (control)
[7] = additive 0.1%, no addition 28.1

For CC(=O)Oc1cccnc1 [3-Acetoxypyridine], the “Relative Activity” value [1] was 1%.

With CC(=O)c1cccnc1 [3-Acetylpyridine] the “Relative Activity” value [1] was 8%.

In the case of CC(N)CCc1ccccc1 (stereo not shown) [3-Aminophenylbutane], the “Relative Activity” value [2] is reported as 84% and the “Reactivity as amino compound (in words)” value [2] is reported as “favorable reactivities”.

COc1ccc(CCC(C)=O)cc1 [4-(4-Methoxyphenyl)-2-butanone] was tested, and the “Relative Activity” value [1] was 7%.

CC(=O)c1ccncc1 [4-Acetylpyridine] was tested, and the “Relative Activity” value [1] was 27%.

For C[C@@H](N)c1cccc2ccccc12 [(R)-1-Naphthylethylamine], the “(R)-DMA Formed” value [3] was 34.2%.

C[C@@H](N)c1ccccc1 [(R)-1-Phenylethylamine] was tested, and the “Relative Activity” value [2] was 100%, the “Activity on the substance as amino group donor (in words)” value [4] was “especially high activity” and the “Relative Activity” value [4, 6] was 100* %.

In the case of N[C@@H](CO)c1ccccc1 [(R)-2-Phenylglycinol], the “Relative Activity” value [2] is reported as 0%.

In the case of C[C@H](N)c1ccccc1 [(S)-1-Phenylethylamine], the “Relative Activity” value [2] is reported as 0%.

In the case of N[C@H](CO)c1ccccc1 [(S)-2-Phenylglycinol], the “Relative Activity” value [2] is reported as 180% and the “Reactivity as amino compound (in words)” value [2] is reported as “favorable reactivities”.

For CC(=O)CCc1ccccc1 [Benzyl acetone], the “Relative Activity” value [1] was 3%.

With CCCCCCCCCCCCCCCC[N+](C)(C)C.[Br-] [Cetyl trimethyl ammonium bromide] the “(R)-DMA Formed” value [5, 7] was 29.1%.

CC(=O)C(C)=O [Diacetyl] was tested, and the “Relative Activity” value [1] was 10%.

In the case of CCOC(=O)CC(C)=O [Ethyl acetoacetate], the “Relative Activity” value [1] is reported as 4%.

In the case of CCOC(=O)CC(=O)c1ccccc1 [Ethyl benzoyl acetate], the “Relative Activity” value [1] is reported as 2%.

CCOC(=O)C(C)=O [Ethyl pyruvate] was tested, and the “Relative Activity” value [1] was 27%.

For O=CC(=O)O [Glyoxylic acid], the “Relative Activity” value [1] was 4%.

N[C@H](CO)Cc1ccccc1 [L-Phenylalaninol] was tested, and the “Relative Activity” value [2] was 0.8%.

For CCCCC/C=C\C/C=C\CCCCCCCC(=O)O [Linoleic Acid], the “(R)-DMA Formed” value ([5]; additive 2.9%) was 45.1% and the “Effect of additive on yield of reaction product (in words)” value (shortened to “Effect of additive”) [5] was “yield of the reaction product was increased”.

With CCCCCCCC/C=C\CCCCCCCC(=O)O [Oleic Acid] the “(R)-DMA Formed” value ([5]; additive 2.9%) was 44.9% and the “Effect of additive” value [5] was “yield of the reaction product was increased”.

For O=C(O)CC(=O)C(=O)O [Oxalacetic acid], the “Relative Activity” value [1] was 87% and the “Reactivity as carbonyl compound (in words)” value [1] was “favorable reactivities”.

In the case of CC(=O)COc1ccccc1 [Phenoxy-2-propanone], the “Relative Activity” value [1] is reported as 83% and the “Reactivity as carbonyl compound (in words)” value [1] is reported as “favorable reactivities”.

In the case of O=CCc1ccccc1 [Phenyl acetaldehyde], the “Relative Activity” value [1] is reported as 13%.

CC(=O)C(=O)O [Pyruvic acid] was tested, and the “Relative Activity” value [1] was 100%.

CCCCCCCCCCCCOS(=O)(=O)[O-].[Na+] [Sodium dodecyl sulfate] was tested, and the “(R)-DMA Formed” value [5, 7] was 45.3%, the “(R)-DMA Formed” value ([5]; additive 0.5%) was 42.2% and the “(R)-DMA Formed” value ([5]; additive 1.0%) was 46.3%. For the same compound, the “(R)-DMA Formed” value ([5]; additive 2.0%) was 50.1%, the “(R)-DMA Formed” value ([5]; additive 3.0%) was 51.9% and the “(R)-DMA Formed” value ([5]; additive 4.0%) was 53.1%. For the same compound, the “Effect of additive” value [5] was “yield of the reaction product was increased”.

NCCS(=O)(=O)O [Taurine] was tested, and the “Relative Activity” value ([4]; amino group acceptor 2-ketoglutaric acid, (R)-1-phenylethylamine/pyruvic acid = 100 (control)) was 0%.

For NCCC(N)C(=O)O (stereo not drawn) [α-2,4-Diaminobutyric acid], the “Relative Activity” value [4, 6] was 0%.

Triton X-100 was tested, and the “(R)-DMA Formed” value [5, 7] was 31.6% and the “(R)-DMA Formed” value ([5]; additive 0.5%) was 34.0%.
